{"source": "patent US5510345A", "about": "“Biologically active eburnamenine derivatives, pharmaceutical compositions containing them and process for preparing same” (Richter Gedeon Vegyeszeti Gyar Rt., priority 1992, dated 1996)", "key": {"[1]": {"system": "Fe^2+-induced lipid peroxidation in rat brain homogenate", "experiment": "Effect on the Fe^2+-induced (non-enzymatically induced) lipid peroxidation in brain homogenate", "type": "biochemical, rat (Hannover-Wistar)", "details": "for IC50: rat brain homogenate, 20 min, 37° C., pH 7.4, 8 mM ferrous diammonium disulfate solution (5 μl), malondialdehyde at 535 nm, read-out: Inhibition of the Fe^2+-induced lipid peroxidation IC50; for antioxidant activity compared with tirilazad mesylate / inhibition of the Fe^2+-induced lipid peroxidation compared with silymarin or ellagic acid / inhibitory effect on the Fe^2+-induced lipid peroxidation compared with DL-α-tocopherol: in words, from Table I", "description": "Effect on the Fe^2 +-induced lipid peroxidation in brain homogenate\nAfter decapitating Hannover-Wistar rats weighing 150-220 g each, the whole brain was homogenized in 9 volumes of icecold Krebs-Ringer's buffer containing 15 mM 4-(2-hydroxyethyl)-1-(piperazinylethanesulfonic acid (abbreviated: HEPES, pH 7.4), 140 mM sodium chloride, 3.6 mM potassium chloride, 1.5 mM calcium chloride, 0.7 mM magnesium chloride, 1.4 mM potassium dihydrogen phosphate and 10 mM glucose!. Then, the protein content of the solution was determined and adjusted to 10 mg/ml concentration.\nAfter adding the inhibitory agent to be tested in a volume of 5 ml to 200 μl of the homogenate, the incubation mixture was incubated at 37° C. for 20 minutes. The Fe^2+ -induced lipid peroxidation was accomplished by adding 5 μl of 8 mM ferrous diammonium disulfate Fe(NH4)2 (SO4)2 ! solution. After passing of the incubation time, the reaction was stopped by adding 1 ml of a stopping solution containing 0.8M hydrogen chloride in trichloroacetic acid solution of 12.5%; then the samples were centrifuged at 2000×g in a Janetzki apparatus at 4° C. for 10 minutes.\nTo 0.5 ml portion of the supernatant, 1 ml of 1% thiobarbituric acid solution was added, then the samples were placed in a water bath of 100° C. for 20 minutes. The color intensity developed was determined at 535 nm with the aid of a Hitachi 150-20 spectrophotometer by using malondialdehyde bis(diethylacetal) as reference compound."}, "[2]": {"system": "NADPH-induced lipid peroxidation in rat brain microsomes", "experiment": "Inhibition of the NADPH-induced (enzymatically induced) lipid peroxidation in brain microsomes", "type": "biochemical, rat (male Hannover-Wistar)", "details": "20 min, 37° C., pH 6.8, 0.4 mM NADPH, malondialdehyde at 535 nm, N.I.: no inhibition", "excerpt": "The pharmacological effect of the eburnamenine derivatives of the formula (I) was studied as described hereinafter. […] The antioxidative effect was investigated on microsomes prepared from rat brain J. Neurochem. 37, pages 422-426 (1981)! and on rat brain homogenate J. Biol Chem. 262, pages 10438-10440 (1987)!. Inhibition of the NADPH-induced lipid peroxidation in brain microsomes Male Hannover-Wistar rats with a body weight of 150-250 g were used for the preparation of microsomes. After decapitation, the whole brain of the rat was removed and homogenized in a 10-fold volume of ice-cold 0.25M saccharose solution. The homogenate was centrifuged in a Hitachi CR 26H equipment at 15000×g at 4° C. for 10 minutes, then the supernatant was collected and centrifuged in a Hitachi SC[…] equipment at 78000×g at 4° C. for 60 minutes. After suspending the precipitate in 0.15M potassium chloride solution, the protein content of the obtained solution was determined and then adjusted to 10 mg/ml concentration. The microsome thus obtained was frozen in a dry ice-acetone mixture and stored at -70° C. until use. The components of the incubation mixtures were: 50 mM tris(hydroxymethyl)aminomethane hydrochloride (pH 6.8), 0.2 mM ferric chloride, 1 mM potassium dihydrogen phosphate, 0.5 mM adenosine-5'-diphosphate, 0.2 mg of microsomes as well as the compound to be tested. The incubation was carried out with a final volume of 1 ml and an incubation time of 20 minutes at a temperature of 37° C. The lipid peroxidation was induced by adding 0.4 mM NADPH ([…], reduced form). […] The formation of malondialdehyde was determined by using thiobarbituric acid. After stopping the reaction, 1 ml of 1% thiobarbituric acid solution each was added to the samples, which were then 10 placed in a water bath of about 100° C. for 10 minutes. Subsequently, the samples were centrifuged at 2000×g in a Janetzki K70 apparatus at 4° C. for 10 minutes. The absorbance value of the colored supernatant was measured at 535 nm in a Hitachi 150-20 spectrophotometer. Malondialdehyde bis(diethylacetal) was used as reference compound. The IC50 values of the compounds were determined on the basis of the concentration/effect correlations thereof and are indicated in Table I."}}, "note": "Counter-ions that a name gives are not always drawn."}
{"molecule": "Cc1c(C)c2c(c(C)c1O)CCC(C)(CCCC(C)CCCC(C)CCCC(C)C)O2", "note": "(racemic) [DL-α-Tocopherol, reference compound]", "values": [{"measurement": "IC50", "setting": "[1]", "value": 10.5, "unit": "µM"}, {"measurement": "Inhibition of the NADPH-induced lipid peroxidation IC50", "setting": "[2]", "value": "N.I."}]}
{"molecule": "CC[C@@]12C=C(C(=O)N3CCN(c4cc(N5CCCC5)nc(N5CCCC5)n4)CC3)n3c4c(c5ccccc53)CCN(CCC1)[C@H]42", "note": "[Compound 1, 1-(3α,16α)-eburnamenine-14-carbonyl!-4-2,6-bis(pyrrolidino)-4-pyrimidinyl!piperazine]", "values": [{"measurement": "antioxidant activity compared with tirilazad mesylate", "setting": "[1]", "value": "reaches and even exceeds to some extent the lipid peroxidation-inhibiting effect of tirilazad mesylate"}, {"measurement": "IC50", "setting": "[1]", "value": 124, "unit": "µM"}, {"measurement": "IC50", "setting": "[2]", "value": 24.2, "unit": "µM"}]}
{"molecule": "CC[C@@]12C=C(CN3CCN(c4cc(N5CCCC5)nc(N5CCCC5)n4)CC3)n3c4c(c5ccccc53)CCN(CCC1)[C@H]42", "note": "[Compound 2, 1-{ (3α,16α)-eburnamenine-14-yl!methyl}-4-2,6-bis(pyrrolidino)-4-pyrimidinyl!piperazine trihydrobromide]", "values": [{"measurement": "antioxidant activity compared with tirilazad mesylate", "setting": "[1]", "value": "reaches and even exceeds to some extent the lipid peroxidation-inhibiting effect of tirilazad mesylate"}, {"measurement": "IC50", "setting": "[1]", "value": 112, "unit": "µM"}, {"measurement": "IC50", "setting": "[2]", "value": 6.2, "unit": "µM"}]}
{"molecule": "CCC12C=C(C(=O)N3CCN(c4cc(N5CCCC5)nc(N5CCCC5)n4)CC3)n3c4c(c5ccccc53)CCN(CCC1)C42", "note": "(stereo not drawn) [Compound 3, 1-(16α)-eburnamenine-14-carbonyl!-4-2,6-bis(pyrrolidino)-4-pyrimidinyl!piperazine]", "values": [{"measurement": "inhibition of the Fe^2+-induced lipid peroxidation compared with silymarin or ellagic acid", "setting": "[1]", "value": "more effectively than the hepatoprotective silymarin or the anticancerogenic ellagic acid"}, {"measurement": "inhibitory effect on the Fe^2+-induced lipid peroxidation compared with DL-α-tocopherol", "setting": "[1]", "value": "reaches the antioxidant activity of the therapeutically used DL-α-tocopherol"}, {"measurement": "IC50", "setting": "[1]", "value": 11.4, "unit": "µM"}, {"measurement": "IC50", "setting": "[2]", "value": 2.4, "unit": "µM"}]}
{"molecule": "CCC12C=C(C(=O)N3CCN(c4cc(N5CCCC5)nc(N5CCCC5)n4)CC3)n3c4c(c5ccccc53)CCN(CCC1)C42", "note": "(stereo not drawn) [Compound 4, 1-(3α)-eburnamenine-14-carbonyl!-4-2,6-bis(pyrrolidino)-4-pyrimidinyl!piperazine]", "values": [{"measurement": "inhibition of the Fe^2+-induced lipid peroxidation compared with silymarin or ellagic acid", "setting": "[1]", "value": "more effectively than the hepatoprotective silymarin or the anticancerogenic ellagic acid"}, {"measurement": "inhibitory effect on the Fe^2+-induced lipid peroxidation compared with DL-α-tocopherol", "setting": "[1]", "value": "reaches the antioxidant activity of the therapeutically used DL-α-tocopherol"}, {"measurement": "IC50", "setting": "[1]", "value": 10.3, "unit": "µM"}, {"measurement": "IC50", "setting": "[2]", "value": 3.1, "unit": "µM"}]}
{"molecule": "O=c1oc2c(O)c(O)cc3c(=O)oc4c(O)c(O)cc1c4c23", "note": "[Ellagic acid, 4,4',5,5',6,6'-hexahydrodiphenic acid 2,6':2',6-dilactone, reference compound]", "values": [{"measurement": "IC50", "setting": "[1]", "value": 51, "unit": "µM"}, {"measurement": "IC50", "setting": "[2]", "value": 47.2, "unit": "µM"}]}
{"molecule": "C[C@@H]1C[C@H]2[C@@H]3CCC4=CC(=O)C=C[C@]4(C)C3=CC[C@]2(C)[C@H]1C(=O)CN1CCN(c2cc(N3CCCC3)nc(N3CCCC3)n2)CC1", "note": "[Tirilazad mesylate, 16α-methyl-21-{4-2,4-bis(pyrrolidino)6-pyrimidinyl!-1-piperazinyl}-pregna-1,4,9(11)-trien-3,20-dione methanesulfonate, reference compound]", "values": [{"measurement": "IC50", "setting": "[1]", "value": 135, "unit": "µM"}, {"measurement": "IC50", "setting": "[2]", "value": 121, "unit": "µM"}]}
